Results: patent US20150118305A1, “COMPOSITIONS COMPRISING SULFORAPHANE OR A SULFORAPHANE PRECURSOR AND URSOLIC ACID” (Nutramax Laboratories, Inc., priority 2012, published 2015)

What was measured:
[1] = system: matrix metalloproteinase-9 (MMP-9) gene expression; experiment: MMP-9 gene expression in PC3 cells by quantitative RT-PCR (Example 6); assay type: cell-based; settings: PC3, 24 hours
Method: The following study was conducted to determine the effect of the combination of sulforaphane and ursolic acid on matrix metalloproteinase-9 (MMP-9) gene expression. The MMP-9 gene encodes the protein that is known to degrade the extracellular matrix, which is the support system of cells. In prostate, colon, brain, and other cancers, MMP9 expression is increased, and this increase has been correlated with metastasis. A decrease in MMP-9 is favorable for these cancers.
In the study, the prostate cancer cell line PC3 was treated with DMSO (vehicle control), sulforaphane (SFN), ursolic acid (UA), or the combination of sulforaphane and ursolic acid, for 24 hours. Gene expression of MMP-9 was analyzed via quantitative RT-PCR. FIGS. 5a and 5b and FIG. C show the results of the study.
Two separate treatments were conducted. […] The following reductions in gene expression of MMP-9 were observed: (i) a 5% decrease with 1 μM SFN alone, (ii) a 31% decrease with 5 μg/mL UA alone, and (iii) a 40% decrease with the combination of 1 μM SFN and 5 μg/mL UA. […] The following reductions in gene expression of MMP-9 were observed: (i) a 13% decrease with 1 μM SFN alone, (ii) a 28% decrease with 5 μg/mL UA alone, and (iii) a 45% decrease with the combination of 1 μM SFN and 5 μg/mL UA.
The following reductions in gene expression of MMP-9 were observed: (i) a 39% decrease with 5 μM SFN alone, (ii) a 15% decrease with 10 μg/mL UA alone, and (iii) a 59% decrease with the combination of 5 μM SFN and 10 μg/mL UA.

[2] = system: NAD(P)H:quinine oxidoreductase (NQO1); settings: oral administration; mammary epithelium; cited from earlier work
[3] = system: heme oxygenase-1 (HO-1); settings: oral administration; mammary epithelium; cited from earlier work
[4] = system: myrosinase; experiment: Conversion of glucoraphanin to sulforaphane in Simulated Intestinal Fluid (Example 5); assay type: biochemical, broccoli; settings: 38° C., 0.25 to 1.00 mmol/Liter ascorbic acid, FIG. 4
Method: Simulated Intestinal Fluid (SIF) powder, a commercially supplied concentrate closely approximating the human intestinal content in terms of composition, pH and ionic strength, was used. The experiment utilized a USP Dissolution Apparatus 2 (paddles), where into six dissolution vessels 500 mL of Simulated Intestinal Fluid was dispensed, along with 150 mg of freeze-dried broccoli sprout powder as a source of myrosinase. […] Aliquots were withdrawn every 15 minutes, and assayed for sulforaphane.

[5] = system: broccoli sprout-derived myrosinase; experiment: Consumption of glucoraphanin by myrosinase as a function of ascorbic acid concentration (Example 3); assay type: biochemical; settings: for glucoraphanin (GR) content of reaction mixture: 38° C.
Method: About 250 mg of broccoli seed extract containing about 12% (w/w) glucoraphanin were subjected to hydrolysis by a fixed concentration of broccoli sprout-derived myrosinase in the presence of variable concentration of ascorbic acid, ranging from 0 to 600 μmoles/Liter. The reaction mixtures were thermostated at 38° C.; aliquots were withdrawn every 15 minutes for 60 minutes, and concentration of glucoraphanin determined chromatographically. The rate of glucoraphanin consumption was interpreted as the rate its conversion to sulforaphane. Graphical representation of glucoraphanin content reduction as a function of increasing ascorbic acid concentration results in a series of linear plots; the slopes of the linear regression lines reflect the rate of glucoraphanin consumption, in pmoles/minute. It is apparent that in the presence of 600 μmoles/Liter concentration of ascorbic acid, the reaction rate increased 13-fold relative to that which proceeded in the absence of modulatory effects of ascorbic acid.

[6] = system: myrosinase; experiment: Equimolar conversion of glucoraphanin to sulforaphane, ascorbic acid modulating myrosinase activity (Example 4); assay type: biochemical; settings: Part 2; 250 mg broccoli seed extract
Method: A two-part experiment was conducted to further elucidate the role of ascorbic acid in modulating myrosinase activity. […] A control sample contained no ascorbic acid, and the enzymatic conversion proceeded unassisted by a co-factor. PART 1. […] PART 2. While keeping the amount of broccoli seed extract fixed at 250 mg, the concentration of ascorbic acid was varied from 0.4 mmol/Liter to 3.8 mmol/Liter.

C[C@H]1[C@H](C)CC[C@]2(C(=O)O)CC[C@]3(C)C(=CC[C@@H]4[C@@]5(C)CC[C@H](O)C(C)(C)[C@@H]5CC[C@]43C)[C@H]12 [UA, (1S,2R,4aS,6aR,6aS,6bR,8aR,10S,12aR,14bS)-10-hydroxy-1,2,6a,6b,9,9,12a-heptamethyl-2,3,4,5,6,6a,7,8,8a,10,11,12,13,14b-tetradecahydro-1H-picene-4a-carboxylic acid]
decrease in gene expression of MMP-9 ([1]; 5 μg/mL UA alone, Part 1 first treatment (FIG. 5a)): 31%
decrease in gene expression of MMP-9 ([1]; 5 μg/mL UA alone, Part 1 second treatment (FIG. 5b)): 28%
decrease in gene expression of MMP-9 ([1]; 10 μg/mL UA alone, Part 2 (FIG. 6)): 15%

C[S+]([O-])CCCCN=C=S (centres unmarked) [SFN, 1-isothiocyanato-4-methylsulfinylbutane]
increase in NQO1 enzymatic activity [2]: 3 fold
elevated immunostaining of HO-1 enzyme [3]: 4 fold
decrease in gene expression of MMP-9 ([1]; 1 μM SFN alone, Part 1 first treatment (FIG. 5a)): 5%
decrease in gene expression of MMP-9 ([1]; 1 μM SFN alone, Part 1 second treatment (FIG. 5b)): 13%
decrease in gene expression of MMP-9 ([1]; 5 μM SFN alone, Part 2 (FIG. 6)): 39%

O=C1O[C@H]([C@@H](O)CO)C(O)=C1O [Ascorbic Acid, ascorbic acid]
sulforaphane yield versus ascorbic acid concentration [4]: direct correlation between larger yield of sulforaphane and higher concentrations of ascorbic acid
Slope of linear regression (rate of glucoraphanin consumption) ([5]; 50 μM ascorbic acid): -0.286 µmol/min
glucoraphanin (GR) content of reaction mixture ([5]; 50 μM ascorbic acid, 0 min): 93.36 µmol
glucoraphanin (GR) content of reaction mixture ([5]; 50 μM ascorbic acid, 15 min): 89.20 µmol
glucoraphanin (GR) content of reaction mixture ([5]; 50 μM ascorbic acid, 30 min): 84.24 µmol
glucoraphanin (GR) content of reaction mixture ([5]; 50 μM ascorbic acid, 45 min): 80.30 µmol
glucoraphanin (GR) content of reaction mixture ([5]; 50 μM ascorbic acid, 60 min): 76.36 µmol
Slope of linear regression (rate of glucoraphanin consumption) ([5]; 125 μM ascorbic acid): -0.5622 µmol/min
glucoraphanin (GR) content of reaction mixture ([5]; 125 μM ascorbic acid, 0 min): 93.36 µmol
glucoraphanin (GR) content of reaction mixture ([5]; 125 μM ascorbic acid, 15 min): 84.52 µmol
glucoraphanin (GR) content of reaction mixture ([5]; 125 μM ascorbic acid, 30 min): 75.92 µmol
glucoraphanin (GR) content of reaction mixture ([5]; 125 μM ascorbic acid, 45 min): 68.09 µmol
glucoraphanin (GR) content of reaction mixture ([5]; 125 μM ascorbic acid, 60 min): 59.41 µmol
Slope of linear regression (rate of glucoraphanin consumption) ([5]; 250 μM Filtered ascorbic acid): -0.4714 µmol/min
glucoraphanin (GR) content of reaction mixture ([5]; 250 μM Filtered ascorbic acid, 0 min): 93.36 µmol
glucoraphanin (GR) content of reaction mixture ([5]; 250 μM Filtered ascorbic acid, 15 min): 86.31 µmol
glucoraphanin (GR) content of reaction mixture ([5]; 250 μM Filtered ascorbic acid, 30 min): 79.44 µmol
glucoraphanin (GR) content of reaction mixture ([5]; 250 μM Filtered ascorbic acid, 45 min): 71.94 µmol
glucoraphanin (GR) content of reaction mixture ([5]; 250 μM Filtered ascorbic acid, 60 min): 65.18 µmol
Slope of linear regression (rate of glucoraphanin consumption) ([5]; 250 μM ascorbic acid): -0.7901 µmol/min
glucoraphanin (GR) content of reaction mixture ([5]; 250 μM ascorbic acid, 0 min): 93.36 µmol
glucoraphanin (GR) content of reaction mixture ([5]; 250 μM ascorbic acid, 15 min): 80.95 µmol
glucoraphanin (GR) content of reaction mixture ([5]; 250 μM ascorbic acid, 30 min): 69.06 µmol
glucoraphanin (GR) content of reaction mixture ([5]; 250 μM ascorbic acid, 45 min): 57.63 µmol
glucoraphanin (GR) content of reaction mixture ([5]; 250 μM ascorbic acid, 60 min): 45.76 µmol
Slope of linear regression (rate of glucoraphanin consumption) ([5]; 400 μM ascorbic acid): -1.007 µmol/min
glucoraphanin (GR) content of reaction mixture ([5]; 400 μM ascorbic acid, 0 min): 93.36 µmol
glucoraphanin (GR) content of reaction mixture ([5]; 400 μM ascorbic acid, 15 min): 78.32 µmol
glucoraphanin (GR) content of reaction mixture ([5]; 400 μM ascorbic acid, 30 min): 62.78 µmol
glucoraphanin (GR) content of reaction mixture ([5]; 400 μM ascorbic acid, 45 min): 47.67 µmol
glucoraphanin (GR) content of reaction mixture ([5]; 400 μM ascorbic acid, 60 min): 33.15 µmol
Slope of linear regression (rate of glucoraphanin consumption) ([5]; 600 μM ascorbic acid): -1.2 µmol/min
glucoraphanin (GR) content of reaction mixture ([5]; 600 μM ascorbic acid, 0 min): 93.36 µmol
glucoraphanin (GR) content of reaction mixture ([5]; 600 μM ascorbic acid, 15 min): 75.02 µmol
glucoraphanin (GR) content of reaction mixture ([5]; 600 μM ascorbic acid, 30 min): 55.66 µmol
glucoraphanin (GR) content of reaction mixture ([5]; 600 μM ascorbic acid, 45 min): 37.50 µmol
glucoraphanin (GR) content of reaction mixture ([5]; 600 μM ascorbic acid, 60 min): 22.09 µmol
increase of reaction rate relative to absence of ascorbic acid ([5]; 600 μmoles/Liter ascorbic acid): 13 fold
ascorbic acid concentration up to which myrosinase-promoted conversion increases apparently linearly, then levels off [6]: about 2 mmol/L
